Results as given in US9808528B2, “Protein-polymer-drug conjugates and methods of using same” (priority 2014, dated 2017).
pIC50: −log10 of the molar value. Several values for one entry are separate records, joined by “and”; a condition that tells them apart may be missing. Identical values can stand only once.

Columns and labels:
BT474 [1] = test: Cell viability assay (Cell Titer-Glo); type: cell-based, human; details: 72 h incubation; AF-HPA as toxin equivalents
Protocol: (§1) PBRM-polymer-drug conjugates were evaluated for their antiproliferation properties in tumor cell lines in vitro using Cell Titer-Glo (Promega Corp). Cells were plated in black walled 96-well plate and allowed to adhere overnight at 37° C. in a humidified atmosphere of 5% CO2. SKBR3, BT474, NCI-N87 cells (HER2 expressing cells), MCF7 cells (HER2 low expressing levels cells) and JIMT1 cells (HER2 medium expression level cells) were plated at a density of 5,000 cells per well. The next day the medium was replaced with 50 μL fresh medium and 50 μL of 2× stocks of PBRM-polymer-drug conjugate, drug polymer conjugate or drug were added to appropriate wells, mixed and incubated for 72 h. Cell Titer-Glo reagent was added to the wells at room temperature and the luminescent signal was measured after 10 min using a SpectraMax M5 plate reader (Molecular Devices). Dose response curves were generated using SoftMax Pro software. IC50 values were determined from four-parameter curve fitting.

SKBR3 = test: Cell viability assay (Cell Titer-Glo); type: cell-based; details: 72 h incubation; AF-HPA as toxin equivalents
Protocol: as §1

N87 = test: Cell viability assay (Cell Titer-Glo); type: cell-based; details: 72 h incubation; AF-HPA as toxin equivalents
Protocol: as §1

MCF7 = test: Cell viability assay (Cell Titer-Glo); type: cell-based; details: 72 h incubation; HER2 low expressing cells; AF-HPA as toxin equivalents
Protocol: as §1

JIMT1 = test: Cell viability assay (Cell Titer-Glo); type: cell-based; details: 72 h incubation; HER2 medium expression level cells; AF-HPA as toxin equivalents
Protocol: as §1

hErbB2 = hErbB2 (Homo sapiens, UniProt P04626); test: Ligand binding studies by BIAcore surface plasmon resonance (SPR); details: 25° C.; immobilized hErbB2; BioRad ProteOn XPR36
Protocol: The kinetic binding of the PBRM-polymer-drug conjugate to an immobilized receptor is determined by BIAcore SPR. The binding constants for the PBRM in the PBRM-polymer-drug conjugate and PBRM alone can be determined using standard BIAcore procedures.
The kinetic binding of the PBRM-polymer-drug conjugate to an immobilized receptor was determined by BIAcore SPR.

JIMT-1 = details: read-out: IC50 JIMT-1; HER2 molecules per cell 80,000; Her2 expression 2+; 72 hours or 6 days
JIMT-1 cells = test: Tumor growth response, JIMT-1 xenograft; type: in vivo, mice
Protocol: Female CB-17 SCID mice were inoculated subcutaneously with BT474 tumor fragments (n=10 for each group) or JIMT-1 cells (n=10 for each group) or NCI-N87 cells (n=10 for each group). […] Test compounds or vehicle were dosed IV as a single dose on day 1. Tumor size was measured at the times indicated in FIGS. 1 to 6 using digital calipers. Tumor volume was calculated and was used to determine the delay in tumor growth. Mice were sacrificed when tumors reached a size of 800 to 1500 mm^3. Tumor volumes are reported as the mean±SEM (“standard error of mean”) for each group.

MDA-MB-453 = test: Cytotoxicity assay (CellTiter-Glo); type: cell-based; details: HER2 molecules per cell 125,000; Her2 expression 2+; 72 hours or 6 days
MDA-MB-361 = test: Cytotoxicity assay (CellTiter-Glo); type: cell-based, human; details: HER2 molecules per cell 135,000; Her2 expression 2+; 72 hours or 6 days
Protocol: (§2) MDA-MB-175-VII (human breast cancer cell line, not amplified, ATCC, Cat.# HTB-25), was cultured in Leibovitz's L-15 Medium with 20% FBS. CAMA-1 (human breast cancer cell line, not amplified, ATCC, Cat.# HTB-21), was cultured in 90% ATCC-formulated Eagle's Minimum Essential Medium.
(§3) For the cytotoxicity assay, cells were seeded at a density of 3000 cells per well in 96 well plates and allowed to attach during overnight incubation at 37° C. in the presence of 5% CO2.

MDA-MB-175VII = test: Cytotoxicity assay (CellTiter-Glo); type: cell-based, human; details: read-out: IC50 MDA-MB-175VII; HER2 molecules per cell 51,000; Her2 expression 1+; 72 hours or 6 days
Protocol: as §2, §3

CAMA-1 = test: Cytotoxicity assay (CellTiter-Glo); type: cell-based, human; details: HER2 molecules per cell 50,000; Her2 expression 1+; 72 hours or 6 days
Protocol: as §2, §3

ZR75-1 = test: Cytotoxicity assay (CellTiter-Glo); type: cell-based, human; details: HER2 molecules per cell 40,000; Her2 expression 1+; 72 hours or 6 days
Protocol: (§4) ZR75-1 (human breast cancer cell line, not amplified, ATCC, Cat.# CRL-1500), was cultured in RPMI-1640 Medium. HCC1187 (human breast cancer cell line, not amplified, ATCC, Cat.# CRL-2322), was cultured in RPMI-1640 Medium. HCC38 (human breast cancer cell line, not amplified, ATCC, Cat.# CRL-2314), was cultured in RPMI-1640 Medium. T47D (human breast cancer cell line, not amplified, ATCC, Cat.# HTB-133), was cultured in RPMI-1640 Medium. MDA-MB-231 (human breast cancer cell line, not amplified, ATCC, Cat.# HTB-26), was cultured in DMEM Medium.
as §3

HCC1187 = test: Cytotoxicity assay (CellTiter-Glo); type: cell-based, human; details: HER2 molecules per cell 38,000; Her2 expression 2+; 72 hours or 6 days
Protocol: as §4, §3

HCC38 = test: Cytotoxicity assay (CellTiter-Glo); type: cell-based, human; details: HER2 molecules per cell 36,000; Her2 expression 2+; 72 hours or 6 days
Protocol: as §4, §3

T47D = test: Cytotoxicity assay (CellTiter-Glo); type: cell-based, human; details: HER2 molecules per cell 20,000; Her2 expression 1+; 72 hours or 6 days
Protocol: as §4, §3

MDA-MB-231 = test: Cytotoxicity assay (CellTiter-Glo); type: cell-based, human; details: HER2 molecules per cell 5400; Her2 expression 1+; 72 hours or 6 days
Protocol: as §4, §3

NCI-H522 = test: Cytotoxicity assay (CellTiter-Glo); type: cell-based; details: HER2 molecules per cell 25,000; Her2 expression 1+; 72 hours or 6 days
Protocol: (§5) NCI-H1581 (non-small cell lung carcinoma medium expressing cell line, not amplified, ATCC, Cat.# CRL-5878) cells were cultured in DMEM:F12 medium (ATCC, Cat#30-2006). […] CALU3 (human lung adenocarcinoma cell line, ATCC, Cat# HTB-55) was cultured in ATCC-formulated Eagle's Minimum Essential Medium. […] NCI-H2122 (human lung adenocarcinoma cell line, not amplified, ATCC, Cat# CRL-5985) was cultured in RPMI-1640 Medium, (ATCC, Cat#30-2001).
as §3

NCI-H1581 = test: Cytotoxicity assay (CellTiter-Glo); type: cell-based; details: HER2 molecules per cell 13,000; Her2 expression 1+; 72 hours or 6 days
Protocol: as §5, §3

NCI-H2170 = test: Cytotoxicity assay (CellTiter-Glo); type: cell-based; details: HER2 molecules per cell 660,000; Her2 expression 3+; 72 hours or 6 days
Protocol: as §5, §3

CALU3 = test: Cytotoxicity assay (CellTiter-Glo); type: cell-based, human; details: HER2 molecules per cell 330,000; Her2 expression 3+; 72 hours or 6 days
Protocol: as §5, §3

NCI-H2122 = test: Cytotoxicity assay (CellTiter-Glo); type: cell-based, human; details: HER2 molecules per cell 12,000; Her2 expression 1+; 72 hours or 6 days
Protocol: as §5, §3

A549 = test: Cytotoxicity assay (CellTiter-Glo); type: cell-based, human; details: HER2 molecules per cell 6,000; Her2 expression 1+; 72 hours or 6 days
Protocol: (§6) A549 (human lung carcinoma cell line, not amplified, ATCC, Cat# CCL-185) was cultured in F12K Medium. […] NCI-H460 (human lung carcinoma cell line, not amplified, ATCC, Cat.# HTB-177) was cultured in RPMI-1640 Medium, (ATCC, Cat.#30-2001). SHP-77 (human small cell lung cancer cell line, not amplified, ATCC, Cat.# CRL-2195) was cultured in RPMI-1640 Medium, (ATCC, Cat#30-2001).
as §3

NCI-H460 = test: Cytotoxicity assay (CellTiter-Glo); type: cell-based, human; details: HER2 molecules per cell 4,000; Her2 expression 1+; 72 hours or 6 days
Protocol: as §6, §3

SHP-77 = test: Cytotoxicity assay (CellTiter-Glo); type: cell-based, human; details: HER2 molecules per cell 0; 72 hours or 6 days
Protocol: as §6, §3

SNU5 = test: Cytotoxicity assay (CellTiter-Glo); type: cell-based; details: HER2 molecules per cell 22,000; Her2 expression 1+; 72 hours or 6 days
Protocol: as §6, §3

KATOIII = test: Cytotoxicity assay (CellTiter-Glo); type: cell-based, human; details: HER2 molecules per cell 19,000; Her2 expression 1+; 72 hours or 6 days
Protocol: as §6, §3

MKN45 = test: Cytotoxicity assay (CellTiter-Glo); type: cell-based, human; details: HER2 molecules per cell 16,000; Her2 expression 1+; 72 hours or 6 days
Protocol: (§7) OVCAR3 (ovarian adenocarcinoma, not amplified, ATCC, Cat# HTB-161) was cultured in RPMI medium with 20% FBS. […] MKN-45 III (human gastric adenocarcinoma cell line, not amplified, DSMZ, Braunschweig, Germany, Cat.# ACC409) was cultured in RPMI-1640 Medium, (ATCC, Cat#30-2001). SKOV3 (human ovary adenocarcinoma cell line ATCC, Cat.# HTB-77), was cultured in McCoy's 5a Medium.
as §3

OVCAR3 = test: Cytotoxicity assay (CellTiter-Glo); type: cell-based; details: HER2 molecules per cell 7,200; Her2 expression 1+; 72 hours or 6 days
Protocol: as §7, §3

SKOV3 = test: Cytotoxicity assay (CellTiter-Glo); type: cell-based, human; details: HER2 molecules per cell 220,000; Her2 expression 3+; 72 hours or 6 days
Protocol: as §7, §3

TOV21G = test: Cytotoxicity assay (CellTiter-Glo); type: cell-based, human; details: HER2 molecules per cell 12,000; Her2 expression 1+; 72 hours or 6 days
Protocol: as §7, §3

BT474 [2] = test: Cytotoxicity assay (CellTiter-Glo); type: cell-based, human; details: HER2 molecules per cell 860,000; Her2 expression 3+; 72 hours or 6 days
Protocol: as §7, §3

NCI-N87 = test: Cytotoxicity assay (CellTiter-Glo); type: cell-based; details: HER2 molecules per cell 700,000; Her2 expression 3+; 72 hours or 6 days
Protocol: as §3

HL-60 cells = test: Tumor growth response, HL-60 xenograft; type: in vivo, mice; details: single IV dose day 1; 20 mg/kg
Protocol: Female NCr nu/nu mice were inoculated subcutaneously with HL-60 cells (n=10 for each group). Test compounds or vehicle were dosed IV as a single dose on day 1. Tumor size was measured at the times indicated in FIGS. 1 to 6 using digital calipers. Tumor volume was calculated and was used to determine the delay in tumor growth. Mice were sacrificed when tumors reached a size of 800 to 1500 mm^3. Tumor volumes are reported as the mean±SEM (“standard error of mean”) for each group.
Female NCr nu/nu mice were inoculated subcutaneously with HL-60 cells (n=10 for each group). Test compounds or vehicle were dosed IV as a single dose on day 1. Tumor size was measured at the times indicated in FIG. 3 using digital calipers. Tumor volume was calculated and was used to determine the delay in tumor growth. Mice were sacrificed when tumors reached a size of 2000 mm^3. Tumor volumes are reported as the mean±SEM for each group.

Trastuzumab-((EG2-MI (2%)-(10 kDa PHF-BA (28%)-(AF-HPA-Ala (9%) [Example 17]
pIC50 (BT474 [1]): 10.52
pIC50 (SKBR3): 10.52
pIC50 (N87): 9.37
pIC50 (MCF7): 7.54
pIC50 (JIMT1): 10.22
ka (association or affinity rate constant) (hErbB2): 8.30 ± 0.2 × 10^5 M^−1s^−1
kd (dissociation rate constant) (hErbB2): 2.32 ± 0.2 × 10^−5 s^−1
pIC50 (JIMT-1): 9.52

Trastuzumab-((EG2-MI (2%)-(10 kDa PHF-BA (28%)-(AF-HPA-Ala (9%) [Example 18A]
pIC50 (BT474 [1]): 10.40
pIC50 (SKBR3): 10.70
pIC50 (N87): 10.22
pIC50 (MCF7): 8.02
pIC50 (JIMT1): 9.80
ka (association or affinity rate constant) (hErbB2): 4.67 ± 0.7 × 10^5 M^−1s^−1
kd (dissociation rate constant) (hErbB2): 2.07 ± 0.2 × 10^−5 s^−1

Trastuzumab-((EG2-MI (2%)-(10 kDa PHF-BA (28%)-(AF-HPA-Ala (9%) [Example 18B]
pIC50 (BT474 [1]): 10.30
pIC50 (SKBR3): 11.00
pIC50 (N87): 10.40
pIC50 (MCF7): 7.48
pIC50 (JIMT1): 9.92
ka (association or affinity rate constant) (hErbB2): 3.05 ± 0.2 × 10^5 M^−1s^−1
kd (dissociation rate constant) (hErbB2): 2.46 ± 0.1 × 10^−5 s^−1

Trastuzumab-((EG2-MI (2%)-(10 kDa PHF-BA (28%)-(AF-HPA-Ala (9%) [Example 18C]
pIC50 (BT474 [1]): 10.52
pIC50 (SKBR3): 10.70
pIC50 (N87): 10.22
pIC50 (MCF7): 8.42
pIC50 (JIMT1): 9.74
ka (association or affinity rate constant) (hErbB2): 4.25 ± 0.5 × 10^5 M^−1s^−1
kd (dissociation rate constant) (hErbB2): 2.03 ± 0.1 × 10^−5 s^−1

Trastuzumab-((EG2-MI (2.5%)-(10 kDa PHF-BA (28%)-(AF-HPA-Ala (8.4%) [Example 10]
regressions, FIG. 4B (JIMT-1 cells; 2.0 mg/kg single IV dose): 100%
tumor free survival at the end of the study, FIG. 4B (JIMT-1 cells; 2.0 mg/kg single IV dose): all of which remained tumor free survival
tumor volume response (in words), FIG. 4B (JIMT-1 cells; 2 mg/kg single dose or […] weekly for 3 weeks, IV): reduction of tumor volume

ado-trastuzumab emtansine [Kadcyla]
pIC50 (BT474 [1]): 8.62
pIC50 (SKBR3): 9.64
pIC50 (N87): 10.05
pIC50 (MCF7): 7.41
pIC50 (JIMT1): 7.74
pIC50 (MDA-MB-453): ~7.00
pIC50 (MDA-MB-361): 9.57 and 9.48
pIC50 (MDA-MB-175VII): 8.92
pIC50 (CAMA-1): 8.11
pIC50 (ZR75-1): < 7.00
pIC50 (HCC1187): 7.52
pIC50 (HCC38): < 7.00
pIC50 (T47D): 7.08
pIC50 (MDA-MB-231): 7.57
pIC50 (NCI-H522): ~7.00
pIC50 (NCI-H1581): ~7.00
pIC50 (NCI-H2170): 9.40
pIC50 (CALU3): < 7.00
pIC50 (NCI-H2122): 7.72
pIC50 (A549): < 7.00
pIC50 (NCI-H460): 7.17
pIC50 (SHP-77): < 7.00
pIC50 (SNU5): ~7.00
pIC50 (KATOIII): < 7.00
pIC50 (MKN45): < 7.00
pIC50 (OVCAR3): ~7.07
pIC50 (SKOV3): 8.25
pIC50 (TOV21G): < 7.00
pIC50 (BT474 [2]): 8.89
pIC50 (NCI-N87): 9.52
ka (association or affinity rate constant) (hErbB2): 4.61 ± 0.2 × 10^5 M^−1s^−1
kd (dissociation rate constant) (hErbB2): 3.17 ± 0.9 × 10^−5 s^−1
tumor volume response (in words), FIG. 4A (JIMT-1 cells; single IV dose day 1, Example 14 at 2, 0.67 and 0.3 mg/kg, trastuzumab 20 mg/kg, Kadcyla 20 mg/kg): increase of tumor volume
tumor volume response (in words), FIG. 2 (JIMT-1 cells; single IV dose day 1, conjugates […], trastuzumab 10 mg/kg, Kadcyla 10 mg/kg): increase of tumor volume
pIC50 (JIMT-1): 7.76

lintuzumab
tumor volume response (in words), FIG. 3 (HL-60 cells): increase of tumor volume
